Assay [1] deals with T1, Muscarinic acetylcholine receptor M5 (Homo sapiens, UniProt P08912).
T1 sequence (P08912 whole entry): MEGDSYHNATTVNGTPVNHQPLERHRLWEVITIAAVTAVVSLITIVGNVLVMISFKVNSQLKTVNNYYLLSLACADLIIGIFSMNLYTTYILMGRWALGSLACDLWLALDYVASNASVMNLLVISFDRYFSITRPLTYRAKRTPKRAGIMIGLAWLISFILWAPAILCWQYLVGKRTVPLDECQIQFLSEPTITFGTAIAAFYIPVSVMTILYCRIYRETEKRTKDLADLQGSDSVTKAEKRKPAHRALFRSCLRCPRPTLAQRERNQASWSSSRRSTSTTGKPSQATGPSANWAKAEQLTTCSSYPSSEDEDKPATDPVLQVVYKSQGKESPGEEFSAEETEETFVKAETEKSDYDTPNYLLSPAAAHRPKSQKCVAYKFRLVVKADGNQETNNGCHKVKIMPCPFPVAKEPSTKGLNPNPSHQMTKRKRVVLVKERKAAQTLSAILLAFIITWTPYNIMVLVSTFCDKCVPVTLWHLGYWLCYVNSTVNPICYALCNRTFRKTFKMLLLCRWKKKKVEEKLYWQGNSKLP

In assay [2] the target is T2, Muscarinic acetylcholine receptor M4 (Homo sapiens, UniProt P08173).
T2 sequence (P08173 whole entry): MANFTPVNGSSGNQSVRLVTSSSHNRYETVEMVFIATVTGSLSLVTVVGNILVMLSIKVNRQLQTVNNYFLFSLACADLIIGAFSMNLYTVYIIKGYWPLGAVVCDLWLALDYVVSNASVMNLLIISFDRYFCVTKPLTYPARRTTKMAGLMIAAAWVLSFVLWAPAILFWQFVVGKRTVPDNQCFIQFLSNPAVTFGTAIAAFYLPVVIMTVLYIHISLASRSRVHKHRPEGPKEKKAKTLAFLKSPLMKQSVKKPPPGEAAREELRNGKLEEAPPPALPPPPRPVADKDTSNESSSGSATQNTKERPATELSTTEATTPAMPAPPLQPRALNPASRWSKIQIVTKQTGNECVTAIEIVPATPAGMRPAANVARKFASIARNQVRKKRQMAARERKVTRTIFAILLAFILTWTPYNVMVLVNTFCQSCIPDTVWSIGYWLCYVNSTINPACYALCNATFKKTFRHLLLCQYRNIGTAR

Assay [3] deals with T3, Muscarinic acetylcholine receptor M2 (Homo sapiens, UniProt P08172).
T3 sequence (P08172 whole entry): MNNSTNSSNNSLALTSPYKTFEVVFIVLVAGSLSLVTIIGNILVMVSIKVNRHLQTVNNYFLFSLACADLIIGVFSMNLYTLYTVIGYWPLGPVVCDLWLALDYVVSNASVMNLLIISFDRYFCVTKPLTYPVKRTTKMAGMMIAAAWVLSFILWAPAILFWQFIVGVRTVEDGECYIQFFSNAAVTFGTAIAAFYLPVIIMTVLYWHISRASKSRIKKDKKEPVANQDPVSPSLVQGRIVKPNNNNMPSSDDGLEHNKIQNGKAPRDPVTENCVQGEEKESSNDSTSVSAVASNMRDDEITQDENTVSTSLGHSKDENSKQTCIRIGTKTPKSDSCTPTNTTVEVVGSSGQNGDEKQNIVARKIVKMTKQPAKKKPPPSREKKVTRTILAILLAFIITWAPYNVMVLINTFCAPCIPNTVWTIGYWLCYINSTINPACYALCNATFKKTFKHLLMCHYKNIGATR

The record followed here is BindingDB's records for PubMed 1994002 (National Institute of Neurological Disorders and Stroke, 1991).

Several values for one entry are separate records, joined by “and”; a condition that tells them apart may be missing. Equal values may be shown once.

Usually Ki stands for the dissociation constant of the complex between target and ligand, obtained from inhibition or displacement.

As to `C[N+]1(C)CCC(OC(=O)C(c2ccccc2)c2ccccc2)CC1`, the Ki in assay [1] was determined as 1.05 nM.

Take `CCCN(CCC)CC1CCCCN1CCNC(=O)N1c2ccccc2C(=O)Nc2cccnc21` (stereo not drawn): the Ki in assay [2] was determined as 10 nM; in assay [1], 537 nM; in assay [3], 6.03 nM.

In the case of `CCN(CC)CC1CCCCN1CC(=O)N1c2ccccc2NC(=O)c2ccccc21` (single isomer, unassigned; (+)) [CAS_121029-35-4], the inhibition constant Ki turned out to be 162 nM in assay [2], 3020 nM in assay [1] and 55 nM in assay [3].

Take `O[Si](CCCN1CCCCC1)(c1ccc(F)cc1)C1CCCCC1` (stereo not drawn) [CAS_5311091]: the Ki was determined as 31.6 nM in assay [2], 93.3 nM in assay [1] and 132 nM in assay [3].

In the case of `C[C@H]1OC(=O)C2C[C@H]3CCCC[C@@H]3[C@@H](/C=C/[C@@H]3CCC[C@H](C)N3C)C21` (stereo partly drawn) [HIMBACINE], the values for the Ki in assay [1] and in assay [3] were 490 nM and 10 nM, respectively.

With `COc1ccccc1CNCCCCCCNCCCCCCCCNCCCCCCNCc1ccccc1OC` [METHOCTRAMINE], the Ki in assay [2] was determined as 31.6 nM; in assay [1] it was 135 nM.

Turning to `CCN(CC)CCCCC1CCN(CC(=O)N2c3ccccc3C(=O)Nc3cccnc32)CC1` [NSC_129989], the Ki in assay [2] worked out at 6.46 nM; in assay [1] it was 832 nM.

As for `OC(C#CCN1CCCCC1)(c1ccccc1)C1CCCCC1` (stereo not drawn) [NSC_2054314], the Ki in assay [2] is 3.02 nM and 19.5 nM; in assay [3], 20.9 nM and 72.4 nM.
